From patent US7531555B2, “Compositions and methods for selective inhibition of nicotine acetylcholine receptors” (University of Florida Research Foundation, Inc., priority 2003, dated 2009)

Columns and labels:
mice [1] = test: Tail-flick test, blockade of nicotine-induced antinociception; type: in vivo
Experimental: Animals. Male ICR mice (20-25 g) obtained from Harlan Laboratories (Indianapolis, Ind.) were used throughout the study. Animals were housed in groups of six and had free access to food and water. Adult, male Long-Evans rats (350-460 g), obtained from Harlan (Dublin, Va.), were individually housed in a temperature-controlled (20-22° C.) environment with a 12-hour light-dark cycle (lights on at 7 a.m.). Rats were maintained within the indicated weight range by restricted post-session feeding and had ad libitum water in their home cages. Rats were drug-naive at the beginning of the study. Animals were housed in an AALAC approved facility and the study was approved by the Institutional Animal Care and Use Committee of Virginia Commonwealth University.
1. Tail-flick test. Antinociception was assessed by the tail-flick method of D'Amour and Smith (D'Amour and Smith J. P. E. T., 1941, 72:74-79) as modified by Dewey et al. (Dewey et al. J Pharmacol Exp Ther, 1970, 175:435-442). Briefly, mice were lightly restrained while a radiant heat source was shone onto the upper portion of the tail. Latency to remove the tail from the heat source was recorded for each animal. A control response (2-4 seconds) was determined for each mouse before treatment, and a test latency was determined after drug administration. In order to minimize tissue damage, a maximum latency of 10 seconds was imposed. Antinociceptive response was calculated as percent maximum possible effect (% MPE), where % MPE=[(test-control)/(10-control)]×100.
2. Hot-plate Test. […] Two control latencies at least 10 minutes apart were determined for each mouse. […] Antinociceptive response was calculated as percent maximum possible effect (% MPE), where % MPE=[(test-control)/(40-control)×100]. The reaction time was scored when the animal jumped or licked its paws. […]
The doses of nicotine used in the different tests represent approximately an ED84 (Effective dose 84%) which were determined from previous works (Damaj et al. Psychopharmacology (Berl), 1995, 117:67-73). […]

mice [2] = test: Body temperature, nicotine-induced hypothermia; type: in vivo; settings: for Body temperature Δ° C. (Mean ± SEM): s.c.
Experimental: Animals. Male ICR mice (20-25 g) obtained from Harlan Laboratories (Indianapolis, Ind.) were used throughout the study. Animals were housed in groups of six and had free access to food and water. Adult, male Long-Evans rats (350-460 g), obtained from Harlan (Dublin, Va.), were individually housed in a temperature-controlled (20-22° C.) environment with a 12-hour light-dark cycle (lights on at 7 a.m.). Rats were maintained within the indicated weight range by restricted post-session feeding and had ad libitum water in their home cages. Rats were drug-naive at the beginning of the study. Animals were housed in an AALAC approved facility and the study was approved by the Institutional Animal Care and Use Committee of Virginia Commonwealth University. Body temperature. Rectal temperature was determined by a thermistor probe (inserted 24 mm) and digital thermometer (Yellow Springs Instrument Co., Yellow Springs, Ohio). […] The difference in rectal temperature before and after treatment was calculated for each mouse. The ambient temperature of the laboratory varied from 21-24° C. from day to day. […] Psychopharmacology (Berl), 1995, 117:67-73). Eight to twelve mice were tested in each treatment group and each animal was tested only once. Statistical analysis. Statistical analysis of all analgesic and in vivo studies was performed using either t-test or analysis of variance (ANOVA) with Tukey's test post hoc test when appropriate.

[3] = s.c. injection, at the indicated doses and times

Question: Which “duration of TMPH effect, tail-flick” value (mice [1]; TMPH 5 mg/kg s.c., still significantly different from control) does the source give for CCCCCCC(=O)OC1CC(C)(C)NC(C)(C)C1 [TMPH, 2,2,6,6-tetramethylpiperidin-4-yl heptanoate] here?
Answer: Its value is “at least 4 hours”.

Question: What about the “time at which nicotine's effect started to recover, tail-flick” value (mice [1]; pretreatment with TMPH 5 mg/kg) of the same compound?
Answer: Its value is at most 60 min.

Question: What about the “antinociception by TMPH itself, tail-flick” value (mice [1]; [3]) of the same compound?
Answer: The value was “did not cause antinociception”.

Question: What about the “effect on nicotine-induced hypothermia” value (mice [2]; TMPH 20 mg/kg, nicotine 2.5 mg/kg) of the same compound?
Answer: Its value is “not blocked”.

Question: What about the “Body temperature Δ° C. (Mean ± SEM)” value (mice [2]; TMPH (20 mg/kg)/Nicotine (1.5 mg/kg)) of the same compound?
Answer: The value was −5.2 ± 0.4 °C.

Question: And the “Body temperature Δ° C. (Mean ± SEM)” value (mice [2]; TMPH (20 mg/kg)/Saline)?
Answer: Its value is −1.0 ± 0.2 °C.

Question: And the “blockade of nicotine-induced hypothermia” value (mice [2]; TMPH @ 20 mg/kg)?
Answer: The value was 0% blockade @ 20.

Question: And the “effect of TMPH by itself on body temperature” value (mice [2]; [3])?
Answer: Its value is “did not have a significant effect”.
